Patent publication US9862754B2, “Peptide analogs for treating diseases and disorders” (KeyBioscience AG, priority 2011, dated 2018)

Key:
[1] = Example 3: OGTT after 3 days of oral treatment in DIO rats; assay type: in vivo, rat; conditions: doses of 0.5, 1 and 2 mg/kg p.o.
Description: Drug administration were given by per oral (p.o.) gavage b.i.d. during the study period and as single dose in the morning prior to start of OGTT.
Animals were given 2 g/kg single dose dissolved in milliQ H20.
Following the initial (1st) OGTT, animals were randomized into treatment groups based on FBG and BW. Animals were pre-treated 3 days (b.i.d.) prior to 2nd OGTT. The study was performed in an x-over design with each animal being its own control.
OGTT Following Overnight Fasting (16 h):
Blood sampling and glycemia were measured by heated tail venous puncture. Whole blood glucose levels were determined with an ACCU-CHEK® Avia blood glucose meter (Roche Diagnostics, Rotkreuz, Switzerland). Blood (approx 300 μl) is collected in 1 ml MiniCollect K3EDTA plasma-tube (Greiner-Bio-One GmbH, Frickenhausen, Germany), inverted, and stored on ice. Tubes are centrifuged 3000×g (5000 rpm in table centrifuge) for 10 min at 4° C. and plasma obtained. Plasma samples are stored at −20° C. until analysis. A total of ˜2.5 ml blood is obtained during OGTT (˜0.3% of body weight).
Statistical analysis was performed by one-way ANOVA followed by the Dunnett's post hoc test for multiple comparison. Student's t-test was performed to compare two paired group. All analysis was performed using GRAPHPAD PRISM software (GraphPad Prism, San Diego, Calif. U.S.A). Incremental area under curve (iAUC) during OGTT was calculated by the trapezoidal method. A value of P<0.05 was considered to be significant. All data are presented as mean±standard error of the mean (SEM).
FIG. 10A, FIG. 10B, FIG. 10C, FIG. 10D, FIG. 10E, and FIG. 10F show the effect of oral sCT versus oral UGPs on glucose tolerance during OGTT in DIO rats. Three different doses of oral sCT/UGP284/UGP298/UGP302 containing 0.5, 1 and 2 mg/kg compound were applied by gavage twice daily to 4 groups of rats for 3 days prior to OGTT. The experimental set-up was a cross-over design. * P<0.05, ** P<0.01, *** P<0.001 vs oral vehicle. Results are presented as means±SEM.

[2] = biological target: T1, T47D cell calcitonin receptors (Homo sapiens, UniProt P30988); experiment: Example 4: T47D bioassay, binding of sCT analogs to T47D cell calcitonin receptors (cAMP); assay type: cell-based; conditions: T47D cells; sCT set at 100% at 1000 pg/mL; various concentrations
T1 construct: This cell line is known to have the following receptors: calcitonin, androgen, progesterone; endogenous in cells; host or cells: T47D (human breast epithelial cell line)
T1 sequence (P30988 25-474): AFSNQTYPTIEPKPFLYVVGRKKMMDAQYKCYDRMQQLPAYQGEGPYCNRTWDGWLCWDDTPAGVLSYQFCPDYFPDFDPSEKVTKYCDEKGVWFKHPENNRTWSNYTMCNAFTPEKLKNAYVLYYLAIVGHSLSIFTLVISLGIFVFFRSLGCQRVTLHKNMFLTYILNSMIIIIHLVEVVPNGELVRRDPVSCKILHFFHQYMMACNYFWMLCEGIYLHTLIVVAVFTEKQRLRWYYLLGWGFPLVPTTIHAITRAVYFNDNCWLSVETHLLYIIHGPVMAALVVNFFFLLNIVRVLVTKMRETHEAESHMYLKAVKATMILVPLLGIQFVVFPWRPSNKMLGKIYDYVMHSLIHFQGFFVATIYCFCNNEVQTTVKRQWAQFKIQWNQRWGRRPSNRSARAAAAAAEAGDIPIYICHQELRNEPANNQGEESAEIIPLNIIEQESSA
Description: sCT analogs at various concentrations were tested in a T47D (human breast epithelial cell line) bioassay. This cell line is known to have the following receptors: calcitonin, androgen, progesterone, glucocrticoid, prolactin and estrogen. The results are presented in FIG. 11 as % cAMP binding relative to sCT which was set at 100% cAMP binding at a concentration of 1000 pg/mL.

[3] = tested on: CTX-II; experiment: Example 6: serum CTX-II (Serum PC Cartilaps ELISA), cartilage degradation in DIO rats; assay type: in vivo, rat; conditions: 1 mg/kg p.o. with 150 mg/kg 5-CNAC, 2 hours after treatment, vs sCT
Description: The effect of sCT/calcitonin mimetic on bone and cartilage loss was studied in DIO rats. The animals were dosed as described in Table 6 below, and 2 hours after treatment blood sampling was done by heated tail venous puncture.
Serum CTX-I levels, as an indication of bone resorption, were measured using the RatLaps™ ELISA, and serum CTX-II levels, as an indication of cartilage degradation, were measured using the Serum PC Cartilaps™ ELISA.

## Ac-CSNLSTCVLGKLSQELHKLQTYPRTDVGANAP-NH2 (Ac-CSNLSTCVLGKLSQELHKLQTYPRTDVGANAP-NH2; ends and bridges not checked) [UGP302, calcitonin mimetic]
[1]
  glucose tolerance during OGTT: improvement in glucose tolerance
[2]
  % cAMP binding relative to sCT: highest level of binding of all the tested compounds
[3]
  cartilage degradation (serum CTX-II levels): stronger effect in reduction
